# In patent publication US20230310428A1, “EGFR INHIBITOR AND PREPARATION METHOD AND USE THEREOF” (HONGYUN BIOTECH CO., LTD., priority 2020, published 2023):
# Key:
# Assay in all cases: Growth inhibitory activity of compounds on BaF3 cell lines stably transfected with kinase (MTS, 48 h)
# Type in all cases: cell-based
# [1] = biological target: T1, various mutants of kinase EGFR (BaF3 cell lines stably transfected with kinase) (Homo sapiens, UniProt P00533, T790M/C797S, form not given); details: BaF3 cells stably transfected with EGFR Δ19Del/T790M/C797S, read-out: IC50, growth inhibition, Δ19Del/T790M/C797S
# T1 construct: other: BaF3 cells stably transfected with EGFR Δ19Del/T790M/C797S; MTS, 48; other: BaF3 cell line stably transfected with EGFR Δ19Del/T790M/C7
# T1 sequence (P00533 with tags, fused parts or gaps DEL746-750/T790M/C797S, form open): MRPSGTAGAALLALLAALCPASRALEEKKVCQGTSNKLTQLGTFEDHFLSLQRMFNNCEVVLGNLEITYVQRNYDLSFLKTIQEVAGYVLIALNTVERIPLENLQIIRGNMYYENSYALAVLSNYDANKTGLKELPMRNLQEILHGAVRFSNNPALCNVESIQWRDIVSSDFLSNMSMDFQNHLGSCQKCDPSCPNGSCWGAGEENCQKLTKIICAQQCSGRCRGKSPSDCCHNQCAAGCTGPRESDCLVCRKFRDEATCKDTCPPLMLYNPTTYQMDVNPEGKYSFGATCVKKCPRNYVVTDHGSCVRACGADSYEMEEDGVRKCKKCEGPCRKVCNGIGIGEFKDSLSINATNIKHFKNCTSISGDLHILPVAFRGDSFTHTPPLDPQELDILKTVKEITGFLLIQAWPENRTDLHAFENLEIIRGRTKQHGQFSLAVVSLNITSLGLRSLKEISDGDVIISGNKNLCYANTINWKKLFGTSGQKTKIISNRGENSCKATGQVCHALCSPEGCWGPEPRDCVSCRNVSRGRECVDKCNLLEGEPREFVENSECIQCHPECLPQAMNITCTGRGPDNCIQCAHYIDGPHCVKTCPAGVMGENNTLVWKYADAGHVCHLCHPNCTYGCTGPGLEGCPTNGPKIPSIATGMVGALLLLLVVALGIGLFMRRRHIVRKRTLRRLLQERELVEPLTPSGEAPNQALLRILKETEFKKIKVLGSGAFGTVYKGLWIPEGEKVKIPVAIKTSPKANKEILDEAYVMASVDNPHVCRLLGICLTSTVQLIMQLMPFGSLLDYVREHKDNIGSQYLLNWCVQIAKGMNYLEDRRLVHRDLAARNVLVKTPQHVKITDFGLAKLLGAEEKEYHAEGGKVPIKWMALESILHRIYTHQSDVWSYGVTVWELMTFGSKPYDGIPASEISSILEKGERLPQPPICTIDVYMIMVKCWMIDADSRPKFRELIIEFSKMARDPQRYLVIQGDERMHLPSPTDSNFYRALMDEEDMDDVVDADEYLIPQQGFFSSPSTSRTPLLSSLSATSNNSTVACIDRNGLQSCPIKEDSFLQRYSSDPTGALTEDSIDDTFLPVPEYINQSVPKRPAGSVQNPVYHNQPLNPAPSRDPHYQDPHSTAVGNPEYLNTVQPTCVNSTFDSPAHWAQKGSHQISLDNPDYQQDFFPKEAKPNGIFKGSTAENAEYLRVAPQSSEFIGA
# Procedure, shortened: (§1)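 Cells in DMEM or RPMI 1640 with 10% FBS were exposed to compound at 8 concentrations (top 10 µM, 1/3 steps, 0.1% DMSO) for 48 h at 37 °C, 5% CO2. MTS/PES was then added for 1-4 h and OD490 read; IC50 was fitted from growth inhibition versus 0.1% DMSO control.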
# [2] = biological target: T2, various mutants of kinase EGFR (BaF3 cell lines stably transfected with kinase) (Homo sapiens, UniProt P00533, C797S/L858R/T790M); details: BaF3 cells stably transfected with EGFR L858R/T790M/C797S, read-out: IC50, growth inhibition, L858R/T790M/C797S
# T2 construct: expressed in transfected cells; host or cells: BaF3
# T2 sequence (P00533 25-1210 T790M/C797S/L858R): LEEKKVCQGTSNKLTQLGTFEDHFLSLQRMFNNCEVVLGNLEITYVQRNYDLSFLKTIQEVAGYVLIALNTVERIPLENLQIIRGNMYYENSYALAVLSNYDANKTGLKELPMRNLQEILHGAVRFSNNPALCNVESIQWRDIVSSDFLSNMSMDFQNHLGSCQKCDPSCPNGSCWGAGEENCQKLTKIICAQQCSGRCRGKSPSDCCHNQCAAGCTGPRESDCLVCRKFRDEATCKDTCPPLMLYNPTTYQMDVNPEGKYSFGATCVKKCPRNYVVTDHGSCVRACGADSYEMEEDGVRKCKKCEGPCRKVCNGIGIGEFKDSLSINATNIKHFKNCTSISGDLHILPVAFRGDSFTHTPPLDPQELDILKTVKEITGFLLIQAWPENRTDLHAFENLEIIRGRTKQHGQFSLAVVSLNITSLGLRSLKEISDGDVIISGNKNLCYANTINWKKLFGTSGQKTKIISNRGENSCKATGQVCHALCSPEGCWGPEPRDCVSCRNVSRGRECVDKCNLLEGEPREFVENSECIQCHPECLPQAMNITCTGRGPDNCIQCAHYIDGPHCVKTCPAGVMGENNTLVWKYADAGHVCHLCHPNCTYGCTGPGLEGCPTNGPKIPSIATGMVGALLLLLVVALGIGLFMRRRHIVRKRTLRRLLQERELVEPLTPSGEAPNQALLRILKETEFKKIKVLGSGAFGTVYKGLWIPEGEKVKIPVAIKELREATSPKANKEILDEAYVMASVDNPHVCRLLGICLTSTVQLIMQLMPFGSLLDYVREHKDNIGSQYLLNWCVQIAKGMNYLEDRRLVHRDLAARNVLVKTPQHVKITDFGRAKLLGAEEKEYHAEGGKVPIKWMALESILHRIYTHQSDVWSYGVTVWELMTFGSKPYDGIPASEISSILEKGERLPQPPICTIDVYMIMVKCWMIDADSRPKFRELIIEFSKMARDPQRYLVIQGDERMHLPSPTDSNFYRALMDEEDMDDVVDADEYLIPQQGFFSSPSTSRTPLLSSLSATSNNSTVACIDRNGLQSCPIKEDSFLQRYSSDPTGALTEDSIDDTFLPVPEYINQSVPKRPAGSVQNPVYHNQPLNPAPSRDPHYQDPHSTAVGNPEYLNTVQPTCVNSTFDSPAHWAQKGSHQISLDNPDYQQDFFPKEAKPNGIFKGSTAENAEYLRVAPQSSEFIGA
# Procedure, shortened: as §1
# [3] = biological target: T3, various mutants of kinase EGFR (BaF3 cell lines stably transfected with kinase) (Homo sapiens, UniProt P00533, L858R/T790M); details: BaF3 cells stably transfected with EGFR L858R/T790M, read-out: IC50, growth inhibition, L858R/T790M
# T3 construct: expressed in transfected cells; host or cells: BaF3
# Procedure, shortened: as §1
# [4] = biological target: T4, various mutants of kinase EGFR (BaF3 cell lines stably transfected with kinase) (Homo sapiens, UniProt P00533); details: BaF3 cells stably transfected with EGFR Δ19Del, read-out: IC50, growth inhibition, Δ19Del
# T4 construct: other: BaF3 cells stably transfected with EGFR Δ19Del; MTS, 48 h; other: BaF3 cell line stably transfected with EGFR Δ19Del
# T4 sequence (P00533 with tags, fused parts or gaps DEL746-750): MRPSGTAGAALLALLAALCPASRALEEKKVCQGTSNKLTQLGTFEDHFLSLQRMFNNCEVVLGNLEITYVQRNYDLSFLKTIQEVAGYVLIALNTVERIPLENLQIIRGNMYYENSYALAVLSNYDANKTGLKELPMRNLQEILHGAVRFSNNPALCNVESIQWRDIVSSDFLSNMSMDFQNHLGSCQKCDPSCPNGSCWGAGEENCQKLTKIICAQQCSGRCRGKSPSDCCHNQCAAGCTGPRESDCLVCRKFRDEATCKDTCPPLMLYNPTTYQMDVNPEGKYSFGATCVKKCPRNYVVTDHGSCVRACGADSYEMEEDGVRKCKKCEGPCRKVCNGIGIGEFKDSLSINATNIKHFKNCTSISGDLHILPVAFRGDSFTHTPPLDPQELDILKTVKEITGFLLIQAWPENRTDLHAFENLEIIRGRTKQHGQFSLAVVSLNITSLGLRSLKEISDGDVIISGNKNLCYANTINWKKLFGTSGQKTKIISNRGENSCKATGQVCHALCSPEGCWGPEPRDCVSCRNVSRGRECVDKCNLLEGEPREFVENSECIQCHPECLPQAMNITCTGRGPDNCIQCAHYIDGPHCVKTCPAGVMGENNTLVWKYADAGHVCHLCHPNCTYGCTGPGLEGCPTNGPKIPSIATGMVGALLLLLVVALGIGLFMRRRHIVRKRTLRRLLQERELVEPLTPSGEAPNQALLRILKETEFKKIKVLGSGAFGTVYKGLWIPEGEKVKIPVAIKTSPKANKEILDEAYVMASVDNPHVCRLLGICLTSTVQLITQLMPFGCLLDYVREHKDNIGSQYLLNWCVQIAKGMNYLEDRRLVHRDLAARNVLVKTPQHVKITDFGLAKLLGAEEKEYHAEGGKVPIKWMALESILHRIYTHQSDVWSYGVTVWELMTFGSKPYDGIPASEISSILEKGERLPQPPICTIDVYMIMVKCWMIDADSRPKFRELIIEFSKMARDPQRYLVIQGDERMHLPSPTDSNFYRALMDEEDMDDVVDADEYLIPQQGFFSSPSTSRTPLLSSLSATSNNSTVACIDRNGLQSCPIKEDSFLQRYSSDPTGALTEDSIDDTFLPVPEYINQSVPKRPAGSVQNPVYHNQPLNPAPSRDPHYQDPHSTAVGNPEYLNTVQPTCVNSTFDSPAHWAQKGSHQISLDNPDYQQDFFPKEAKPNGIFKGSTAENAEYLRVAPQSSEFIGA
# Procedure, shortened: as §1
# [5] = biological target: T5, various mutants of kinase EGFR (BaF3 cell lines stably transfected with kinase) (Homo sapiens, UniProt P00533, L858R); details: BaF3 cells stably transfected with EGFR L858R, read-out: IC50, growth inhibition, L858R
# T5 construct: expressed in transfected cells; host or cells: BaF3
# Procedure, shortened: as §1
# [6] = biological target: T6, various mutants of kinase EGFR (BaF3 cell lines stably transfected with kinase) (Homo sapiens, UniProt P00533, T790M, form not given); details: BaF3 cells stably transfected with EGFR Δ19Del/T790M, read-out: IC50, growth inhibition, Δ19Del/T790M
# T6 construct: other: BaF3 cells stably transfected with EGFR Δ19Del/T790M; MTS, 48 h; other: BaF3 cell line stably transfected with EGFR Δ19Del/T790M; MTS, 48
# T6 sequence (P00533 with tags, fused parts or gaps DEL746-750/T790M, form open): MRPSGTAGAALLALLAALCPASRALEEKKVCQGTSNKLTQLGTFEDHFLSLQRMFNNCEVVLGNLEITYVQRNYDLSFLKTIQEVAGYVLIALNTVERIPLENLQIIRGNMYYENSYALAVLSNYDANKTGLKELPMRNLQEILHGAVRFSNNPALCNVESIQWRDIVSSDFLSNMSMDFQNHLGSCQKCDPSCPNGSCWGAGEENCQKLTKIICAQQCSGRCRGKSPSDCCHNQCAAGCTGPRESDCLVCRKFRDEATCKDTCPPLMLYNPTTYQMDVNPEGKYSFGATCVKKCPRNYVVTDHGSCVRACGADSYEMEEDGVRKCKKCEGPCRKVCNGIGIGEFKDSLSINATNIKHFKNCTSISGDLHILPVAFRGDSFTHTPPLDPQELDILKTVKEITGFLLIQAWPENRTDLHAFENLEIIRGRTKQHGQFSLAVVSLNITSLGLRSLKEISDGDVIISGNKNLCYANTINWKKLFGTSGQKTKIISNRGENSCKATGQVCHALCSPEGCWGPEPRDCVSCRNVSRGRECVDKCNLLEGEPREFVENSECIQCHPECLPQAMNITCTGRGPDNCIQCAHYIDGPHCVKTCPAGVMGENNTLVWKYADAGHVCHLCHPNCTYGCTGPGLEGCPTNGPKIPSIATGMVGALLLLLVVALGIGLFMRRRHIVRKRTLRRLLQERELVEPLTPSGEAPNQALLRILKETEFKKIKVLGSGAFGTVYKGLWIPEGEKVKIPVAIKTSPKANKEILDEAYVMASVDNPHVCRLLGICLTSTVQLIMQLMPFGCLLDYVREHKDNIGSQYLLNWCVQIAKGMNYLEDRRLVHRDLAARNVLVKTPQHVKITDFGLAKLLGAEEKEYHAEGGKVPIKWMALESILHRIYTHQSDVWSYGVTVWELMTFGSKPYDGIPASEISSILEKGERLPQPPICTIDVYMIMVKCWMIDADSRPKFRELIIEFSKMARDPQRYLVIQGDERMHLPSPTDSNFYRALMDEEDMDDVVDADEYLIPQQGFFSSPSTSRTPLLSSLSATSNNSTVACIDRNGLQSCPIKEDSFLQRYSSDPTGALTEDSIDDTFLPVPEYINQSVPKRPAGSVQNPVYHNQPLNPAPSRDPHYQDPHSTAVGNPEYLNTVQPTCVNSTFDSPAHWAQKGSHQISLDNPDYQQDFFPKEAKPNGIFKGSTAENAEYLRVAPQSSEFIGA
# Procedure, shortened: as §1
SMILES,IC50 [1],IC50 [2],IC50 [3],IC50 [4],IC50 [5],IC50 [6]
CCc1cc(Nc2ncc(F)c(Nc3ccc4nccnc4c3N(C)S(=O)(=O)C3CC3)n2)c(OC)cc1N1CCC(N(C)C)CC1 [Compound I-252],≤ 50 nM,50 to 500 nM,≤ 50 nM,≤ 50 nM,≤ 50 nM,50 to 500 nM
CCc1cc(Nc2ncc(Cl)c(Nc3ccc4nccnc4c3N(C)S(=O)(=O)C(C)C)n2)c(OC)nc1N1CCC(N2CCN(C)CC2)CC1 [Compound I-253],≤ 50 nM,50 to 500 nM,50 to 500 nM,50 to 500 nM,50 to 500 nM,≤ 50 nM
COc1cc(N2CCC(N3CCN(C)CC3)CC2)c(CC2CC2)cc1Nc1ncc(Cl)c(Nc2ccc3nccnc3c2N(C)S(=O)(=O)C(C)C)n1 [Compound I-254],50 to 500 nM,50 to 500 nM,50 to 500 nM,50 to 500 nM,50 to 500 nM,≤ 50 nM
CCc1cc(Nc2ncc(Cl)c(Nc3ccc4nccnc4c3N(C)S(=O)(=O)C(C)C)n2)c(OC)cc1N1CCN(C)CC1 [Compound I-255],≤ 50 nM,50 to 500 nM,50 to 500 nM,50 to 500 nM,50 to 500 nM,≤ 50 nM
COc1cc(N2CCC(N3CCN(C)CC3)CC2)ccc1Nc1ncc(Br)c(Nc2ccc3nccnc3c2N(C)S(=O)(=O)C(F)(F)F)n1 [Compound I-256],50 to 500 nM,50 to 500 nM,50 to 500 nM,500 to 2500 nM,500 to 2500 nM,500 to 2500 nM
CCc1cc(Nc2ncc(Br)c(Nc3ccc4nccnc4c3N(C)S(=O)(=O)C(F)(F)F)n2)c(OC)nc1N1CCC(N2CCN(C)CC2)CC1 [Compound I-257],≤ 50 nM,50 to 500 nM,50 to 500 nM,500 to 2500 nM,500 to 2500 nM,50 to 500 nM
C=Cc1cc(Nc2ncc(Br)c(Nc3ccc4nccnc4c3N(C)S(=O)(=O)C(F)(F)F)n2)c(OC(F)(F)F)cc1N1CCC(N2CCN(C)CC2)CC1 [Compound I-258],≤ 50 nM,50 to 500 nM,50 to 500 nM,500 to 2500 nM,500 to 2500 nM,50 to 500 nM
COc1cc(N2CCC(N3CCN(C)CC3)CC2)c(CC2CC2)cc1Nc1ncc(Br)c(Nc2ccc3nccnc3c2N(C)S(=O)(=O)C(F)(F)F)n1 [Compound I-259],50 to 500 nM,50 to 500 nM,500 to 2500 nM,500 to 2500 nM,500 to 2500 nM,500 to 2500 nM
CCc1cc(Nc2ncc(Br)c(Nc3ccc4nccnc4c3N(C)S(=O)(=O)C(F)(F)F)n2)c(OC)cc1N1CCN(C)CC1 [Compound I-260],≤ 50 nM,50 to 500 nM,50 to 500 nM,500 to 2500 nM,500 to 2500 nM,50 to 500 nM
COc1cc(N2CCC(N3CCN(C)CC3)CC2)ccc1Nc1ncc(Cl)c(Nc2ccc3nccnc3c2N(C)S(=O)(=O)C(F)(F)F)n1 [Compound I-261],50 to 500 nM,50 to 500 nM,50 to 500 nM,500 to 2500 nM,500 to 2500 nM,50 to 500 nM
CCc1cc(Nc2ncc(Cl)c(Nc3ccc4nccnc4c3N(C)S(=O)(=O)C(F)(F)F)n2)c(OC)nc1N1CCC(N2CCN(C)CC2)CC1 [Compound I-262],50 to 500 nM,50 to 500 nM,500 to 2500 nM,500 to 2500 nM,500 to 2500 nM,50 to 500 nM
C=Cc1cc(Nc2ncc(Cl)c(Nc3ccc4nccnc4c3N(C)S(=O)(=O)C(F)(F)F)n2)c(OC(F)(F)F)cc1N1CCC(N2CCN(C)CC2)CC1 [Compound I-263],50 to 500 nM,50 to 500 nM,500 to 2500 nM,500 to 2500 nM,500 to 2500 nM,50 to 500 nM
COc1cc(N2CCC(N3CCN(C)CC3)CC2)c(CC2CC2)cc1Nc1ncc(Cl)c(Nc2ccc3nccnc3c2N(C)S(=O)(=O)C(F)(F)F)n1 [Compound I-264],50 to 500 nM,50 to 500 nM,500 to 2500 nM,500 to 2500 nM,500 to 2500 nM,500 to 2500 nM
COc1cc(N2CCC(N(C)C)CC2)c(C)cc1Nc1ncc(Cl)c(Nc2ccc3nccnc3c2N(C)S(=O)(=O)C(F)(F)F)n1 [Compound I-265],50 to 500 nM,50 to 500 nM,500 to 2500 nM,500 to 2500 nM,500 to 2500 nM,500 to 2500 nM
COc1cc(N2CCN(C)CC2)c(C)cc1Nc1ncc(Cl)c(Nc2ccc3nccnc3c2N(C)S(=O)(=O)C(F)(F)F)n1 [Compound I-266],500 to 2500 nM,50 to 500 nM,500 to 2500 nM,500 to 2500 nM,500 to 2500 nM,500 to 2500 nM
CCc1cc(Nc2ncc(Cl)c(Nc3ccc4nccnc4c3N(C)S(=O)(=O)C(F)(F)F)n2)c(OC)cc1N1CCN(C)CC1 [Compound I-267],50 to 500 nM,50 to 500 nM,50 to 500 nM,50 to 500 nM,50 to 500 nM,50 to 500 nM
COc1cc(N2CCC(N(C)C)C2)c(C)cc1Nc1ncc(Cl)c(Nc2ccc3nccnc3c2N(C)S(=O)(=O)C(F)(F)F)n1 (stereo not drawn) [Compound I-268],50 to 500 nM,50 to 500 nM,500 to 2500 nM,500 to 2500 nM,500 to 2500 nM,500 to 2500 nM
CCc1cc(Nc2ncc(C3CC3)c(Nc3ccc4nccnc4c3N(C)S(C)(=O)=O)n2)c(OC)cc1N1CCC(N2CCN(C)CC2)CC1 [Compound I-269],≤ 50 nM,≤ 50 nM,≤ 50 nM,≤ 50 nM,≤ 50 nM,≤ 50 nM
CCc1cc(Nc2ncc(C3CC3)c(Nc3ccc4nccnc4c3N(C)S(C)(=O)=O)n2)c(OC)nc1N1CCC(N2CCN(C)CC2)CC1 [Compound I-270],≤ 50 nM,≤ 50 nM,50 to 500 nM,50 to 500 nM,≤ 50 nM,50 to 500 nM
C=Cc1cc(Nc2ncc(C3CC3)c(Nc3ccc4nccnc4c3N(C)S(C)(=O)=O)n2)c(OC(F)(F)F)cc1N1CCC(N2CCN(C)CC2)CC1 [Compound I-271],≤ 50 nM,≤ 50 nM,50 to 500 nM,50 to 500 nM,50 to 500 nM,50 to 500 nM
COc1cc(N2CCC(N(C)C)CC2)c(C)cc1Nc1ncc(C2CC2)c(Nc2ccc3nccnc3c2N(C)S(C)(=O)=O)n1 [Compound I-272],≤ 50 nM,≤ 50 nM,≤ 50 nM,≤ 50 nM,≤ 50 nM,≤ 50 nM
CCc1cc(Nc2ncc(C3CC3)c(Nc3ccc4nccnc4c3N(C)S(C)(=O)=O)n2)c(OC)cc1N1CCC(N(C)C)CC1 [Compound I-273],≤ 50 nM,≤ 50 nM,≤ 50 nM,≤ 50 nM,≤ 50 nM,≤ 50 nM
COc1cc(N2CCC(N(C)C)C2)c(C)cc1Nc1ncc(C2CC2)c(Nc2ccc3nccnc3c2N(C)S(C)(=O)=O)n1 (stereo not drawn) [Compound I-274],≤ 50 nM,50 to 500 nM,50 to 500 nM,50 to 500 nM,50 to 500 nM,50 to 500 nM
CCc1cc(Nc2ncc(C3CC3)c(Nc3ccc4nccnc4c3N(C)S(C)(=O)=O)n2)c(OC)cc1N1CCC(N(C)C)C1 (stereo not drawn) [Compound I-275],≤ 50 nM,≤ 50 nM,50 to 500 nM,≤ 50 nM,≤ 50 nM,≤ 50 nM
COc1cc(N2CCC(N3CCN(C)CC3)CC2)c(C)cc1Nc1ncc(C)c(Nc2ccc3nccnc3c2N(C)S(C)(=O)=O)n1 [Compound I-276],≤ 50 nM,≤ 50 nM,≤ 50 nM,≤ 50 nM,≤ 50 nM,≤ 50 nM
CCc1cc(Nc2ncc(C)c(Nc3ccc4nccnc4c3N(C)S(C)(=O)=O)n2)c(OC)cc1N1CCC(N2CCN(C)CC2)CC1 [Compound I-277],≤ 50 nM,≤ 50 nM,≤ 50 nM,≤ 50 nM,≤ 50 nM,≤ 50 nM
CCc1cc(Nc2ncc(C)c(Nc3ccc4nccnc4c3N(C)S(C)(=O)=O)n2)c(OC)nc1N1CCC(N2CCN(C)CC2)CC1 [Compound I-278],≤ 50 nM,≤ 50 nM,≤ 50 nM,≤ 50 nM,≤ 50 nM,≤ 50 nM
CCc1cc(Nc2ncc(C)c(Nc3ccc4nccnc4c3N(C)S(C)(=O)=O)n2)c(OC)cc1N1CCC(N(C)C)CC1 [Compound I-279],≤ 50 nM,≤ 50 nM,≤ 50 nM,≤ 50 nM,≤ 50 nM,≤ 50 nM
